In patent publication US20180256595A1, “AGENT FOR ENHANCING OCULAR HYPOTENSIVE EFFECT” (KOWA COMPANY, LTD., priority 2015, published 2018):

Experiment: Multi-center open-label study: continuous ocular instillation of 0.4% ripasudil ophthalmic solution twice daily for 52 weeks, change in intra-ocular pressure
Type: in vivo, patients
Procedure: A multi-center open-label study was performed using a cohort for a monotherapy of ripasudil ophthalmic solution (173 cases) and a cohort for an additive therapy of a ripasudil ophthalmic solution in combination with another agent (181 cases) (additive therapy to a PG related drug: 62 cases, additive therapy to a β blocker: 60 cases, additive therapy to a combination drug of said PG-related drug and said β blocker: 59 cases). Patients with primary open angle glaucoma, ocular hypertension, and exfoliation glaucoma (one type of secondary glaucoma to cause aqueous humor outflow resistance due to exfoliation substances in aqueous humor or the like) having a pre-treatment intra-ocular pressure of 15 mmHg or higher or a post-treatment intra-ocular pressure of 15 mmHg or higher at the time after treatment of a PG-related drug, a β-blocker, or a combination drug of the PG-related drug and β-blocker were enrolled. A 0.4% ripasudil ophthalmic solution was dropped into an eye twice daily for 52 weeks. In order to evaluate intra-ocular pressure-lowering effect over time caused by long-term ocular instillation, the amount of change in intra-ocular pressure (least mean square value) in a second half of ocular instillation (32 weeks to 52 weeks) with respect to a first half of ocular instillation (4 weeks to 28 weeks) was examined. Statistical analysis was performed using SAS (SAS Inc., Cary, N.C.) by a least squares method based on a mixed effect model.

[1] = 2 hours after ocular instillation, baseline intra-ocular pressure 15≤ to <18 mmHg
[2] = 2 hours after ocular instillation, baseline intra-ocular pressure 18≤ to <−21 mmHg
[3] = 2 hours after ocular instillation, baseline intra-ocular pressure 21≤ mmHg
[4] = 2 hours after ocular instillation, whole cohort, least mean square value ± SE
[5] = before ocular instillation (immediately before ocular instillation in the morning), whole cohort, least mean square value ± SE
[6] = before ocular instillation, baseline intra-ocular pressure 15≤ to <18 mmHg
[7] = before ocular instillation, baseline intra-ocular pressure 18≤ to <−21 mmHg
[8] = before ocular instillation, baseline intra-ocular pressure 21≤ mmHg

SMILES: C[C@H]1CNCCCN1S(=O)(=O)c1cccc2cncc(F)c12 [Ripasudil only, (S)-(−)-1-(4-fluoro-5-isoquinolinesulfonyl)-2-methyl-1,4-homopiperazine]
- Change from the baseline intra-ocular pressure First half (Week 4-28) [1]: −2.86 ± 0.24 mmHg
- Change from the baseline intra-ocular pressure Second half (Week 32-52) [1]: −3.35 ± 0.25 mmHg
- Difference (second half with respect to first half) [1]: −0.49 ± 0.12 mmHg
- Change from the baseline intra-ocular pressure First half (Week 4-28) [2]: −3.24 ± 0.22 mmHg
- Change from the baseline intra-ocular pressure Second half (Week 32-52) [2]: −3.71 ± 0.22 mmHg
- Difference (second half with respect to first half) [2]: −0.47 ± 0.11 mmHg
- Change from the baseline intra-ocular pressure First half (Week 4-28) [3]: −3.55 ± 0.40 mmHg
- Change from the baseline intra-ocular pressure Second half (Week 32-52) [3]: −4.39 ± 0.41 mmHg
- Difference (second half with respect to first half) [3]: −0.84 ± 0.17 mmHg
- Difference (second half with respect to first half) (2 hours after ocular instillation, whole cohort): −0.58 ± 0.08 mmHg
- Change from the baseline intra-ocular pressure First half (Week 4-28) [4]: −3.23 ± 0.17 mmHg
- Change from the baseline intra-ocular pressure Second half (Week 32-52) [4]: −3.81 ± 0.17 mmHg
- Change from the baseline intra-ocular pressure Second half (Week 32-52) (2 hours after ocular instillation, whole cohort, least mean square value ± SE, listed as ripasudil): −3.81 mmHg
- Difference (second half with respect to first half) (2 hours after ocular instillation, whole cohort, listed as ripasudil): −0.58 mmHg
- Difference (second half with respect to first half) (before ocular instillation (immediately before ocular instillation in the morning), whole cohort): −0.49 ± 0.07 mmHg
- Change from the baseline intra-ocular pressure First half (Week 4-28) [5]: −2.12 ± 0.15 mmHg
- Change from the baseline intra-ocular pressure Second half (Week 32-52) [5]: −2.61 ± 0.15 mmHg
- Change from the baseline intra-ocular pressure Second half (Week 32-52) (before ocular instillation (immediately before ocular instillation in the morning), whole cohort, least mean square value ± SE, listed as ripasudil): −2.61 mmHg
- Difference (second half with respect to first half) (before ocular instillation (immediately before ocular instillation in the morning), whole cohort, listed as ripasudil): −0.49 mmHg
- Change from the baseline intra-ocular pressure First half (Week 4-28) [6]: −1.30 ± 0.25 mmHg
- Change from the baseline intra-ocular pressure Second half (Week 32-52) [6]: −1.70 ± 0.26 mmHg
- Difference (second half with respect to first half) [6]: −0.40 ± 0.12 mmHg
- Change from the baseline intra-ocular pressure First half (Week 4-28) [7]: −2.38 ± 0.16 mmHg
- Change from the baseline intra-ocular pressure Second half (Week 32-52) [7]: −2.66 ± 0.17 mmHg
- Difference (second half with respect to first half) [7]: −0.28 ± 0.11 mmHg
- Change from the baseline intra-ocular pressure First half (Week 4-28) [8]: −2.52 ± 0.34 mmHg
- Change from the baseline intra-ocular pressure Second half (Week 32-52) [8]: −3.42 ± 0.35 mmHg
- Difference (second half with respect to first half) [8]: −0.91 ± 0.16 mmHg
- Difference (second half with respect to first half) (before ocular instillation, baseline intra-ocular pressure 21≤ mmHg, listed as ripasudil): −0.91 mmHg
- intra-ocular pressure-lowering effect on long-term continuous administration (in words) (long-term continuous ocular instillation): exhibited a further intra-ocular pressure-lowering effect by continuous ocular instillation
